Read-outs that look alike come from different tables or passages of the source.
Legend:
CaSR [1] = target: T1, CaSR (Homo sapiens, UniProt P41180); assay: [Ca^2+]i signaling (Fura-2) evoked by [Mg^2+]o/[Ca^2+]o in CaSR-expressing HEK293 cells (5001 cell population assay); format: cell-based; set-up: expressed in transfected cells
T1 sequence (P41180 20-1078): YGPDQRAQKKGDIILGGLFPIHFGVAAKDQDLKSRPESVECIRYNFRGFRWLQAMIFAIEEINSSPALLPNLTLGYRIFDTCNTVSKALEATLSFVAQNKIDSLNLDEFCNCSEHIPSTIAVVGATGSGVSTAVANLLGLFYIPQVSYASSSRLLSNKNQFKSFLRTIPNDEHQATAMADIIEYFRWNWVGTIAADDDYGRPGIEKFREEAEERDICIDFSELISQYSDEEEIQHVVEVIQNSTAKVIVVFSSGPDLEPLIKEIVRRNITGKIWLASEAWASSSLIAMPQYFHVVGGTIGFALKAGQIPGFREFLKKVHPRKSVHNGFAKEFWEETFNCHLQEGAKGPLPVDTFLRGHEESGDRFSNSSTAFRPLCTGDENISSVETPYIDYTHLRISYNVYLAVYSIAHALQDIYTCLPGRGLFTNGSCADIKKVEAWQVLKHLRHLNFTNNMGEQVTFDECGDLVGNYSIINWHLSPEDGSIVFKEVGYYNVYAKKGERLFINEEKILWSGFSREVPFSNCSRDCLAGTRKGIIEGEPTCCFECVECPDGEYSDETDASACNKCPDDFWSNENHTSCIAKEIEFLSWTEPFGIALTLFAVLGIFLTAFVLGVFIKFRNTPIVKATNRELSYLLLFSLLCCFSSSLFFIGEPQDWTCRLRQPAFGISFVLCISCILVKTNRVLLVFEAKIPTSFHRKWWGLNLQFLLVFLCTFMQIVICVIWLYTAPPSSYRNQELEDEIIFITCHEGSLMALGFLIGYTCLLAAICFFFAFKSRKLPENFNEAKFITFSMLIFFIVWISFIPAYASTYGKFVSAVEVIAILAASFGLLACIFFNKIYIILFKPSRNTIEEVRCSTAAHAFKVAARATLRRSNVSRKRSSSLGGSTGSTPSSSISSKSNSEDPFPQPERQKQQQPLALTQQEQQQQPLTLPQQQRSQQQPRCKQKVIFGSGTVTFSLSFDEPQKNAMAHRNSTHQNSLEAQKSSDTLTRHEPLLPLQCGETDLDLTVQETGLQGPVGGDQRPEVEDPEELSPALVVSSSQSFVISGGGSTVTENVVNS
Protocol: Measurement of intracellular free Ca^2+ was assessed as described by Huang, et al^33. Briefly, wild type CaSR, or its mutants, were transiently transfected into HEK293 cells grown on coverslips and cultured for 48 h. The cells were subsequently loaded for 15 min using 2 μM Fura-2 AM in 2 mL physiological saline buffer (10 mM HEPES, 140 mM NaCl, 5 mM KCl, 1.0 mM MgCl2 and pH 7.4). The coverslips were mounted in a bath chamber on the stage of a Leica DM6000 fluorescence microscope. The cells were alternately illuminated with 340 or 380 nm light, and the fluorescence at an emission wavelength 510 nm was recorded in real time as the [Ca^2+]o and/or [Mg^2+]o was increased in a stepwise manner in the presence or absence of 0.25 mM TNCA in buffer (10 mM HEPES, 155 mM NaCl, 5 mM KCl, 2 mM NaH2PO4, 0.5 mM MgCl2 and pH 7.4). The ratio of the emitted fluorescence intensities resulting from excitation at both wavelengths was utilized as a surrogate for changes in [Ca^2+]i and was further plotted and analyzed as a function of [Ca^2+]o. All experiments were performed at room temperature. The signals from 20 to 100 single cells were recorded for each measurement. Oscillations were identified as three successive fluctuations in [Ca^2+]i after the initial peak. Determination of the Effect of TNCA on Mg^2+-Evoked [Ca^2+]i Signaling by Stimulation of CaSR in Cell Populations.
Changes in the intracellular Ca^2+ concentration [Ca^2+ ]i elicited by extracellular Mg^2+ ([Mg^2+]o) in a population of cells were measured by fluorimetry as described previously^33. A cell line stably expressing CaSR (designated the “5001 cell line”) was seeded on 13.5×20-mm coverslips and cultured in DMEM. After reaching 95% confluence, cells were washed three times using loading buffer (20 mM HEPES [pH 7.4], 125 mM NaCl, 5 mM KCl, 1.25 mM CaCl2, 1 mM MgCl2, 1 mM NaH2PO4, 1% glucose, and 1% BSA) and subsequently incubated with 4 μM Fura-2 and 4 μM pluronic F127 for 20 minutes at 37° C. to enable sufficient dye loading in the same buffer. After removing the excess Fura-2, coverslips with cells were diagonally positioned in a quartz cuvette filled with 3 ml of experimental buffer (125 mM NaCl, 5 mM KCl, 0.5 mM CaCl2, 0.5 mM MgCl2, 1% glucose, and 1% BSA). Measurements of Fura-2 fluorescence at 510 nm when excited at 340 or 380 nm were performed on a QM1 fluorescence spectrophotometer (PTI). The emission ratio of 340/380 was calculated and used to reflect the changes in [Ca^2+]i when different concentrations of [Mg^2+]o were applied to the cells.
To examine the co-activation of CaSR by TNCA and [Mg^2+]o or [Ca^2+]o, different concentrations of TNCA were placed in the experimental buffer with a fixed concentration of [Ca^2+]o and varying concentrations of [Mg^2+]o, or vice versa, as described in the results section. The effects of other ligands were analyzed by comparing the changes in [Ca^2+ ]i produced by [Mg^2+]o alone or by co-application of Mg^2+ with other ligands. The EC50 of [Mg^2+]o obtained during incubation with various concentrations of TNCA is compared with that observed in the presence of [Mg^2+]o alone. The EC50 changes were plotted as a function of TNCA concentration and the curve was fit to the Hill equation. The activation of CaSR by the TNCA, functioning as a co-agonist with [Mg^2+]o, is indicated by the increasingly leftward-shifted EC50 for [Mg^2+]o as the concentration of TNCA increases (FIG. 6).

CaSR [2] = target: T1, CaSR; assay: ERK1/2 phosphorylation in 5001 cells stably expressing hCaSR; format: cell-based; set-up: expressed in transfected cells
Protocol: The 5001 cell line stably expressing hCaSR was starved in serum-free DMEM medium supplemented with 0.2% (w/v) BSA overnight, followed by washing 3-times with HBSS and a subsequent 10 minute HBSS incubation after 12 hours. To induce ERK1/2 phosphorylation, varying concentrations of [Mg^2+]o (0-50 mM) or [Ca^2+]o (0-30 mM) with or without 0.5 mM TNCA were added to cells and incubated for 10 minutes at 37° C. The cells were then lysed with Pierce RIPA buffer (ThermoFisher Scientific). Total protein concentration was measured using the BioRad assay. Lysates containing 100 μg of total protein were loaded onto 4-20% gradient SDS-PAGE gels for separation. After electrophoresis, proteins on the gel were transferred to nitrocellulose membranes and further analyzed by western blotting. Anti-phospho-p44/42 ERK (1:1000 dilution) and anti-p44/42 (1:2000) polyclonal antibodies were utilized as probes to detect the phosphorylated ERK1/2 and total ERK1/2 respectively. A chemiluminescent detection method (AP Conjugate Substrate Kit, Bio-Rad) was applied to detect phosphor-ERK1/2 and total-ERK1/2. The respective bands on western blots were evaluated by densitometry. The EC50 of [Mg^2+]o- or [Ca^2+]o-dependent responses were obtained by fitting the [Mg^2+]o or [Ca^2+]o concentration-response curves with the Hill equation (Eq.1).

ECD of CaSR = target: T2, ECD of CaSR (Homo sapiens, UniProt P41180); assay: Ca2+ binding to the ECD by Trp fluorescence signal change; conditions: for Kd: read-out: Kd, 2-phase Hill equation
T2 construct: made in house; host or cells: HEK293S (GnTI-) suspension culture, secreted
T2 sequence (P41180 20-612): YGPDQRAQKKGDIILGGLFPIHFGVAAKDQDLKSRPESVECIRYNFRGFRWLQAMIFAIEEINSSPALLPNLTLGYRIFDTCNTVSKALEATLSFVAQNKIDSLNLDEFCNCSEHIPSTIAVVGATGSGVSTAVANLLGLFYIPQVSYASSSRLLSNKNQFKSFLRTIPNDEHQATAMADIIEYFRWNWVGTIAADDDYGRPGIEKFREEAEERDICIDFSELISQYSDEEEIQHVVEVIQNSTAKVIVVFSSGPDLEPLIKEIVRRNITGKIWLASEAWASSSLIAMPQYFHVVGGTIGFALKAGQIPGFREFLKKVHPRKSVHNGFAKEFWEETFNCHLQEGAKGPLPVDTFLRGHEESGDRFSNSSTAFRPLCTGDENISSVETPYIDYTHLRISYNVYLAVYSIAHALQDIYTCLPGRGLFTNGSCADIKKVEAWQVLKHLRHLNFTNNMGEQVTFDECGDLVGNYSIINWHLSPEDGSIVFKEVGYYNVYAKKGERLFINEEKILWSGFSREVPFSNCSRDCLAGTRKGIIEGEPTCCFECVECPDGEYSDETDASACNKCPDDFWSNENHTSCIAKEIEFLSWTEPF

CaSR [3] = target: T3, CaSR (Bos taurus, UniProt P35384); conditions: X. laevis oocytes; cited from earlier work
T3 construct: host or cells: X. laevis oocytes
T3 sequence (P35384 20-1085): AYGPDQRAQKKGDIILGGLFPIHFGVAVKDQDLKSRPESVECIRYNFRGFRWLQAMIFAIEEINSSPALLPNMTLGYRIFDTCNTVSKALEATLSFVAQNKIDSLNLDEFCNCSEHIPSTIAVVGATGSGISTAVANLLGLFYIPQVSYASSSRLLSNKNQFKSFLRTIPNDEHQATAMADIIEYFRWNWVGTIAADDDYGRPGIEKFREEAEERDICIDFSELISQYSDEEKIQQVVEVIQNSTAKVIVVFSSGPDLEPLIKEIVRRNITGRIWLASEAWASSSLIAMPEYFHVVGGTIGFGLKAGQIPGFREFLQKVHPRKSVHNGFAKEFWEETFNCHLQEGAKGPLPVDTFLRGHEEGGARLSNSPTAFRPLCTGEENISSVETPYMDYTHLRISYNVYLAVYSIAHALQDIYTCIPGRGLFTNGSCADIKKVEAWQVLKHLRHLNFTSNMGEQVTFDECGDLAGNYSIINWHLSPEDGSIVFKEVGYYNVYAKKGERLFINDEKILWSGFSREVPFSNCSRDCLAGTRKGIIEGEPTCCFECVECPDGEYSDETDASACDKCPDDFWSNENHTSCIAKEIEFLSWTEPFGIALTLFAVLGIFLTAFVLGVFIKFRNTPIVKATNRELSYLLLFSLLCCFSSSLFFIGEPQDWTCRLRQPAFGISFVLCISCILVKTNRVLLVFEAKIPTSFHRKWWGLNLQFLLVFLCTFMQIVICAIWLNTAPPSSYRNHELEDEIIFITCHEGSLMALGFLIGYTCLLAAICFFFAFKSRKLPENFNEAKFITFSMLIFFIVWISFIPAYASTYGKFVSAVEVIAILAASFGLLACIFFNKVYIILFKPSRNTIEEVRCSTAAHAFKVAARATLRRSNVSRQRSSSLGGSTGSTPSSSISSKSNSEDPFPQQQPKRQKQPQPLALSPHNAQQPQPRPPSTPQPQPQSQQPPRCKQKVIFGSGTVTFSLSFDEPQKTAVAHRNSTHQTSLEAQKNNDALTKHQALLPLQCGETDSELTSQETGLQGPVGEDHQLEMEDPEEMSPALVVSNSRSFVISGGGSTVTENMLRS

CaSR [4] = target: T1, CaSR; set-up: host or cells: HEK cells, transient; conditions: HEK cells, in the presence of 150 mM NaCl; read-out: EC50 for intracellular calcium responses; cited from earlier work

co-agonism with [Mg^2+]o in activating [Ca^2+]i oscillations (CaSR [1]) | potency relative to Phe in reducing the EC50 for [Mg^2+]o or [Ca^2+]o activation of [Ca^2+]i signaling (CaSR [1]; WT and mutant CaSRs) | EC50 (CaSR [1]; determined indirectly through the EC50 change of [Mg^2+]o at different TNCA concentrations, 0.5 mM [Ca^2+]o, read-out: apparent EC50 of TNCA as co-agonist) [µM] | activation of the receptor by the exogenous compound alone (CaSR [1]; without metal agonist) | co-agonism with [Mg^2+]o in activating ERK1/2 phosphorylation (CaSR [2]) | SMILES | Hill number, 2-phase Hill equation (ECD of CaSR; first phase) | Kd (ECD of CaSR; first phase) [µM] | Hill number, 2-phase Hill equation (ECD of CaSR; second phase) | Kd (ECD of CaSR; second phase) [µM] | EC50 (CaSR [3]) [µM] | EC50 (CaSR [4]) [µM]
strong co-agonist | greater than 1000 fold | ≥ 2 | cannot activate the receptor | strong co-agonist | O=C(O)[C@@H]1Cc2c([nH]c3ccccc23)CN1 [TNCA, L-1,2,3,4-tetrahydronorharman-3-carboxylic acid] | – | – | – | – | – | –
– | – | – | – | – | [Ca+2] [Ca^2+, calcium] | 1.1 | 900 | 3.8 | 10000 | 3000 | 3000 to 5000
